Assay results as given in patent US20140127269A1, “Anti-Inflammatory Peptide Derived From Thrombospondin-1 and Uses Thereof” (THE SCHEPENS EYE RESEARCH INSTITUTE, INC., priority 2012, published 2014).

Key:
[1] = system: CD4+ T cells derived from the spleen and lymph node; assay: Treg and inflammatory effector cells in ova/CFA-immunized mice (flow cytometry); assay type: in vivo; details: 10 μg on day 1, 3 and 5 post-immunization, analysed day 7; compared to control peptide
Procedure: To determine if such an expansion of Treg cells by TSP-peptide is possible in vivo, and whether it can reduce the typical IL-17 or IFNγ-producing inflammatory effectors, mice were immunized with an ovalbumin (ova) antigen in Complete Freund's Adjuvant (CFA). This is a commonly used experimental approach to generate antigen-specific inflammatory effectors. These ova-immunized mice were treated with either control or TSP-peptide (10 μg; SEQ ID NO:1) on day 1, 3 and 5 post-immunization. On day 7 post-immunization, the CD4+ T cells derived from the spleen and lymph node of these mice were analyzed by flow cytometry to determine the numbers of Foxp3+ Treg cells and the expression patterns of the inflammatory cytokines, IL-17 and […].
Lymph nodes were harvested from immunized mice treated with either control or TSP-peptide 7 days post-immunization. Lymph node cells were cultured in the presence of PMA (10 ng/ml), ionomycin (200 ng/ml) and Brefeldin A for 20 hr at 37 degrees C. Cell surface CD4 and CD25 and intracellular Foxp3, IFNgamma and IL-17 were detected using fluorochrome-conjugated antibodies followed by flow cytometric analysis.

[2] = system: experimental mouse model of autoimmune uveitis (IRBP-immunized mice); assay: Experimental autoimmune uveitis, i.p. peptide treatment, clinical disease score; assay type: in vivo, C57BL/6 mice; details: i.p. 10 microgram on day 1, 3 and 5 post-immunization; scored for 26 days; compared to control peptide
Procedure: (§1) The expansion of Treg cells and the reduction of inflammatory effector cells was evaluated in an experimental mouse model of autoimmune uveitis to determine if the TSP-1 peptide reduced disease severity. […] The inflammatory response in the retina is monitored and scored regularly on the basis of severity by examining the fundus.
C57BL/6 mice were immunized subcutaneously, on day 0, with 200 microgram IRBP in complete Freund's adjuvant per mouse followed by i.p. injection of Pertussis toxin (0.1 microgram). On day 1, 3 and 5 post-immunization mice received i.p. injection of 10 microgram of either control or TSP-peptide. Clinical disease score was recorded for the 26 days post-immunization.

[3] = system: experimental mouse model of autoimmune uveitis (IRBP-immunized mice); assay: Experimental autoimmune uveitis, topical peptide treatment, clinical disease score and lymph node Th17/Treg transcription factor message; assay type: in vivo, C57BL/6 mice; details: for disease severity / ocular inflammation (clinical disease score): topical 10 microgram per mouse (5 microgram per eye) once per day, day 1 to 7, scored for 26 days, compared to control peptide
Procedure: as §1
For topical administration, 10 microgram per mouse (5 microgram per eye) was administered for the duration of 7 days. TSP peptide was administered topically once per day for 7 days post-immunization with IRBP-CFA. 1 microgram per microliter solution was used for the eye drops, i.e., 0.1% solution used as 5 microliter per eye resulting in total 10 microliter (10 microgram) per mouse. A liquid formulation was used in topical application as well as when peptide was administered intraperitoneally.
C57BL/6 mice were immunized subcutaneously, on day 0, with 200 microgram IRBP in complete Freund's adjuvant per mouse followed by i.p. injection of Pertussis toxin (0.1 microgram). From day 1 to day 7 pos-immunization total 10 microgram of control or TSP-peptide was administered topically (5 micrograms/5 microliters per eye). Clinical disease score was recorded for the 26 days post-immunization.

[4] = system: CD4+CD25− T cells; assay: Treg induction from anti-CD3-activated CD4+CD25- T cells in vitro (flow cytometry, TGFbeta ELISA); assay type: cell-based
Procedure: Purified CD4+CD25− T cells were stimulated with plate-bound anti-CD3 antibody for 48 hr at 37 degrees C. in the presence of 10 microM TSP-peptide or control peptide. Activated T cells were washed and subjected to 2 cycles of amplification, 48 hr each, in the presence of T cell growth factor IL-2 (50 U/ml). Proliferated T cells were then stained using fluorochrome-conjugated antibodies to label surface CD4 and CD25 and intracellular Foxp3. Stained cells were analyzed using a flow cytometer. Culture supernatants collected from cells after initial 48 hr culture were tested for the content of TGFbeta using an ELISA.

[5] = topical treatment, relative to control peptide

KRFYVVMWKK (listed as Homo sapiens) [4N1K, 4N1 flanked with 2 Lys residues]
numbers of Foxp3-expressing Treg cells [1]: increased numbers
numbers of IFN-γ-expressing CD4 effectors [1]: reduced numbers
numbers of IL-17-expressing CD4 effectors [1]: reduced numbers
disease severity (clinical disease score) [2]: significantly reduced
disease severity / ocular inflammation (clinical disease score) [3]: significantly reduced
disease severity / ocular inflammation (clinical disease score) ([3]; listed as TSP-1 peptide): reduction of ocular inflammation
anti-inflammatory Treg cells in the lymph nodes (transcriptional factor message) [3, 5]: enhancement
pro-inflammatory Th17 cells in the lymph nodes (transcriptional factor message) [3, 5]: decline
number of cells expressing Foxp3 and CD25 ([4]; 10 microM peptide, 48 hr anti-CD3 activation, then 2 cycles IL-2, compared to control peptide (4NGG)): significantly increased
synthesis of immunosuppressive cytokine TGF-β1 ([4]; 10 microM peptide, culture supernatant after initial 48 hr, ELISA): increased
induction of Treg cells in vitro ([4]; in vitro): effectively induces Treg cells
